Columns and labels:
[1] = system: soybean varieties; test: Greenhouse pot test: soybean varieties sown in soil treated with HPPD inhibitor, ED20 and factor versus reference variety; assay type: in vivo, Glycine max
Method: Test Method for the Selection of Suitable Soybean Varieties: Categorisation of the Soybean Varieties According to Their Sensitivity to HPPD Herbicide Residues and Comparison with Sensitive and Non-Sensitive Soybean Varieties:
• 1. A non-sterilised soil is treated with the HPPD inhibitor being tested. The HPPD inhibitor being tested is applied in concentrations of 0, 20, 40 and 80 ppb and incorporated homogeneously into the soil. The soil so treated is then introduced into pots (2⅝ inch×2⅝ inch×3½ inch) and lightly firmed. • 2. Sowing: The soybean varieties being tested are sown in the pots treated as described above as follows: 3 seed grains are used per pot, the seeds being pressed lightly into the soil (under the surface of the soil) and covered over with soil. In each test, varieties having known sensitivity are also tested as reference. These are the soybean varieties NK S40-R9 and Pioneer P94B01. Shortly after germination, the plants are thinned out to two plants per pot. The plants receive an optimum supply of water and nutrients and are kept in a greenhouse at 20-24° C., with 16 hours exposure to light per day. • 3. 3-4 Weeks after sowing, the condition of the plants is evaluated visually. Symptoms of damage to the plants, such as chlorosis, bleaching and growth inhibition (‘stunting’), are assessed and compared with an untreated soya plant of the same variety. • 4. Calculation: The repetitions are combined and a linear regression analysis is carried out with non-transformed data. ED20 values (=effective dose at which damage is 20% in comparison with the untreated control) are calculated from the regression curve for each variety. The soybeans are grouped according to whether they are “sensitive” or “tolerant” by comparing the ED20 values of the test varieties with those of the standard varieties, that is to say by determining a factor with respect to the reference variety.

[2] = system: soya varieties S40R-9 and S24-K4; test: Field carry-over test: phytotoxicity to soya grown as subsequent crop to maize treated with HPPD herbicide; assay type: in vivo, Glycine max
From the text: Biological Test Method for the Selection of Suitable Sensitive Reference Soybean Varieties in the Field:
• a) Compound No. 2.13 according to Table 2 below was applied pre- or post-emergence to maize in three repetitions in a field in the vicinity of Ames, Iowa, USA, under practical conditions at a suitable time (pre-emergence April-May; post-emergence May-June) in a field trial using concentrations of 100, 200 and 400 g a.i./ha. Application of fertilizer, pest control and other cultivation measures were carried out in accordance with the standards customary in agriculture. Because not all weeds were controlled by the test herbicides, the test plots were kept weed-free over the entire vegetation period by the application of non-soil-active herbicides. • b) The plots were harvested and labeled in the autumn. At the customary time in […] (April/May) of the following year, the soybeans to be tested were sown in the labeled plots from the previous year and the condition of the plants on reaching the different physiological growth stages was evaluated (see Table 1). • c) The evaluation was carried out in % general phytotoxicity, which records any effects such as growth inhibition, bleaching, chlorosis, scorching or thinning. 0-4% phytotoxicity is acceptable, >4% is not acceptable under practical field conditions.
Tables A and B: Phytotoxicity of the soya varieties S40R-9 and S24-K4 as a subsequent crop to maize in which weed control has been carried out using the herbicide of formula 2.13. The herbicide was applied in an amount of 400 g/ha; in Table B an oil adjuvant (Agridex) was additionally used in an amount of 1.25% by volume.

Compound: CS(=O)(=O)c1ccc(C(=O)C2C(=O)CCCC2=O)c([N+](=O)[O-])c1 [2.04, reference compound]
- Factor with respect to reference variety NK S40-R9, based on ED20 values ([1]; Table D, soya variety S21-H7 STS): 3.45
- Factor with respect to reference variety NK S40-R9, based on ED20 values ([1]; Table D, soya variety S34-A9 STS): 4.56
- Factor with respect to reference variety NK S40-R9, based on ED20 values ([1]; Table D, soya variety S40-R9 (reference variety)): 1.0

Compound: COCCOCc1nc(C(F)(F)F)ccc1C(=O)C1=C(O)C2CCC(C2)C1=O (stereo not drawn) [Compound No. 2.13]
- % Phytotoxicity (mean value) ([2]; Table A, soya variety NK S40-R9, 400 g/ha on maize, 29 days after sowing, 404 days after herbicide application, BBCH12/BBCH13): 6.67%
- % Phytotoxicity (mean value) ([2]; Table A, soya variety NK S40-R9, 400 g/ha on maize, 42 days after sowing, 417 days after herbicide application, BBCH14/BBCH14): 13%
- % Phytotoxicity (mean value) ([2]; Table A, soya variety NK S40-R9, 400 g/ha on maize, 56 days after sowing, 431 days after herbicide application, BBCH16/BBCH17): 14.33%
- % Phytotoxicity (mean value) ([2]; Table A, soya variety NK-S24-K4, 400 g/ha on maize, 29 days after sowing, 404 days after herbicide application, BBCH12/BBCH13): 0%
- % Phytotoxicity (mean value) ([2]; Table A, soya variety NK-S24-K4, 400 g/ha on maize, 42 days after sowing, 417 days after herbicide application, BBCH14/BBCH14): 0%
- % Phytotoxicity (mean value) ([2]; Table A, soya variety NK-S24-K4, 400 g/ha on maize, 56 days after sowing, 431 days after herbicide application, BBCH16/BBCH17): 0%
- % Phytotoxicity (mean value) ([2]; Table B, soya variety NK S40-R9, 400 g/ha on maize plus oil adjuvant (Agridex) 1.25% by volume, 29 days after sowing, 404 days after herbicide application, BBCH12/BBCH13): 36.67%
- % Phytotoxicity (mean value) ([2]; Table B, soya variety NK S40-R9, 400 g/ha on maize plus oil adjuvant (Agridex) 1.25% by volume, 42 days after sowing, 417 days after herbicide application, BBCH14/BBCH14): 49.33%
- % Phytotoxicity (mean value) ([2]; Table B, soya variety NK S40-R9, 400 g/ha on maize plus oil adjuvant (Agridex) 1.25% by volume, 56 days after sowing, 431 days after herbicide application, BBCH16/BBCH17): 56.67%
- % Phytotoxicity (mean value) ([2]; Table B, soya variety NK-S24-K4, 400 g/ha on maize plus oil adjuvant (Agridex) 1.25% by volume, 29 days after sowing, 404 days after herbicide application, BBCH12/BBCH13): 5.67%
- % Phytotoxicity (mean value) ([2]; Table B, soya variety NK-S24-K4, 400 g/ha on maize plus oil adjuvant (Agridex) 1.25% by volume, 42 days after sowing, 417 days after herbicide application, BBCH14/BBCH14): 3.33%
- % Phytotoxicity (mean value) ([2]; Table B, soya variety NK-S24-K4, 400 g/ha on maize plus oil adjuvant (Agridex) 1.25% by volume, 56 days after sowing, 431 days after herbicide application, BBCH16/BBCH17): 1.67%
- Factor with respect to reference variety NK S40-R9, based on ED20 values ([1]; soya variety AGI 7370 RR): 1.0
- Factor with respect to reference variety NK S40-R9, based on ED20 values ([1]; soya variety Agripro 2502 RR): 5.3
- Factor with respect to reference variety NK S40-R9, based on ED20 values ([1]; soya variety Agripro 2547 RR/N): 4.7
- Factor with respect to reference variety NK S40-R9, based on ED20 values ([1]; soya variety Agway APK 190): 12.2
- Factor with respect to reference variety NK S40-R9, based on ED20 values ([1]; soya variety Agway APK256 RR): 5.6
- Factor with respect to reference variety NK S40-R9, based on ED20 values ([1]; soya variety Asgrow 1602): 5.4
- Factor with respect to reference variety NK S40-R9, based on ED20 values ([1]; soya variety Asgrow 2105): 6.5
- Factor with respect to reference variety NK S40-R9, based on ED20 values ([1]; soya variety Asgrow 2705): 5.0
- Factor with respect to reference variety NK S40-R9, based on ED20 values ([1]; soya variety Asgrow AG1401 RR): 4.5
- Factor with respect to reference variety NK S40-R9, based on ED20 values ([1]; soya variety Asgrow AG2302): 4.7
- Factor with respect to reference variety NK S40-R9, based on ED20 values ([1]; soya variety Asgrow AG3902): 4.7
- Factor with respect to reference variety NK S40-R9, based on ED20 values ([1]; soya variety Asgrow AG4403): 8.5
- Factor with respect to reference variety NK S40-R9, based on ED20 values ([1]; soya variety Beck's 336NRR): 4.5
- Factor with respect to reference variety NK S40-R9, based on ED20 values ([1]; soya variety Beck's 366NRR): 4.9
- Factor with respect to reference variety NK S40-R9, based on ED20 values ([1]; soya variety D King 4868RR): 4.4
- Factor with respect to reference variety NK S40-R9, based on ED20 values ([1]; soya variety Dekalb DK32-51): 5.3
- Factor with respect to reference variety NK S40-R9, based on ED20 values ([1]; soya variety Dekalb DKB23-51): 5.8
- Factor with respect to reference variety NK S40-R9, based on ED20 values ([1]; soya variety Dekalb DKB36-51): 4.2
- Factor with respect to reference variety NK S40-R9, based on ED20 values ([1]; soya variety Garst 2677 RR): 4.1
- Factor with respect to reference variety NK S40-R9, based on ED20 values ([1]; soya variety Gld H H3505RR): 5.8
- Factor with respect to reference variety NK S40-R9, based on ED20 values ([1]; soya variety Kruger 279 RR): 3.4
- Factor with respect to reference variety NK S40-R9, based on ED20 values ([1]; soya variety Kruger 323 RR): 4.3
- Factor with respect to reference variety NK S40-R9, based on ED20 values ([1]; soya variety MFA RT 3660N): 4.3
- Factor with respect to reference variety NK S40-R9, based on ED20 values ([1]; soya variety Mustang M-222RR): 0.8
- Factor with respect to reference variety NK S40-R9, based on ED20 values ([1]; soya variety NK S24-K4): 3.6
- Factor with respect to reference variety NK S40-R9, based on ED20 values ([1]; soya variety NK S35-A6): 5.3
- Factor with respect to reference variety NK S40-R9, based on ED20 values ([1]; soya variety NK S40-R9 (reference variety)): 1.0
- Factor with respect to reference variety NK S40-R9, based on ED20 values ([1]; soya variety NK S46-W8): 0.5
- Factor with respect to reference variety NK S40-R9, based on ED20 values ([1]; soya variety Pioneer 90B51): 1.1
- Factor with respect to reference variety NK S40-R9, based on ED20 values ([1]; soya variety Pioneer 91B33): 4.9
- Factor with respect to reference variety NK S40-R9, based on ED20 values ([1]; soya variety Pioneer 91B91): 3.0
- Factor with respect to reference variety NK S40-R9, based on ED20 values ([1]; soya variety Pioneer 93B67): 1.1
- Factor with respect to reference variety NK S40-R9, based on ED20 values ([1]; soya variety Pioneer 94B01): 0.8
- Factor with respect to reference variety NK S40-R9, based on ED20 values ([1]; soya variety Pioneer 94B54): 1.6
- Factor with respect to reference variety NK S40-R9, based on ED20 values ([1]; soya variety Pioneer 9492): 1.0
- Factor with respect to reference variety NK S40-R9, based on ED20 values ([1]; soya variety Pioneer P92B38): 4.3
- Factor with respect to reference variety NK S40-R9, based on ED20 values ([1]; soya variety S21-H7 STS): 5.03
- Factor with respect to reference variety NK S40-R9, based on ED20 values ([1]; soya variety S34-A9 STS): 8.0
- Factor with respect to reference variety NK S40-R9, based on ED20 values ([1]; soya variety S. Grow SG948RR): 1.2

— patent US8216975B2, “Method of labelling soya varieties” (priority 2004, dated 2012)
